Tests used:
[1] = system: SZ95 (immortalized human sebaceous gland cells) cells; test: Sentinel lipid assay (desaturation index in SZ95 sebocytes); assay type: cell-based; details: for EC50: SZ95 cells, 72h incubation, top concentration 10 μM, desaturation index, read-out: SLA EC50; for Emax: percent compared to the reference compound (Compound H), 72h, read-out: SLA Amax
Experimental: SZ95 (immortalized human sebaceous gland cells) cells were seeded in Greiner bio-one 96-well polypropylene plates that were pre-treated with 50 μg/ml Human Plasma Fibronectin (Thermo Fisher Scientific) at a density of 10^4 cells/135 μl. Cells were incubated in a humidified incubator with 5% CO2 at 37° C. overnight. Test compounds were diluted at a ratio of 1:3 and added to cells at final concentrations starting from 10 μM. Compound H was used as a positive control reference compound in each plate. Cells in the assay plate were incubated in a humidified incubator with 5% CO2 at 37° C. for 72h.
Culture medium was removed from the cells and cells in culture plates were washed with ice cold phosphate buffered saline three times. Plates were heat sealed and stored in a −80° C. freezer prior to Sentinel lipid assay.
Sentinel lipid assay: The sentinel lipid assay was used quantify the change in the global desaturation index in SZ95 sebocytes upon administration of LXR agonist compounds. The assay measures a smaller subset of lipid analytes in […] (termed “sentinel lipids”) which would model the global changes the population of both saturated and desaturated lipids in the cells. In order to define this smaller subset of lipids, a complete lipid profile was recorded on dose response curves (eight levels from 4 nM to 10 uM) of Compounds A-N. An elastic net regression model was applied separately to both the saturated and desaturated lipids to determine the minimum combination of coefficients and analytes which could be used to adequately model the total population of lipids. The elastic net model was able to reduce the behavior of 425 lipids to 11 lipids and the correlation between the desaturation indices observed using the complete set of lipids with from the 11 sentinel lipids was 0.96.
A medium throughput assay was created using this reduced set of sentinel lipids. A single batch is defined as triplicate examples of three unique plates (i.e., a single batch of cells is used to create nine plates for LC-MSMS analysis). Lipids were extracted from the cells using a 1:1 mixture of methylene chloride/methanol containing 10 nM of deuterated standards of triglycerides, which are used as internal standards for quantitating the lipid abundance. The lipids were separated prior to mass spectrometric analysis using a five minute HPLC gradient. The abundance of the sentinel lipids and the internal standards are measured using multiple reaction monitor mode (MRM) on a triple quadrupole mass spectrometer. The data was transformed from total ion current to nmoles/10^6 cells, which are multiplied by the coefficients from the elastic net model to determine the effective desaturated and saturated content, and therein the desaturation index of the dosed cells. In order to compare compounds from multiple batches with one another, the measure raw desaturation index was normalized by dividing it by the desaturation index of the DMSO dosed cells, and all data was assessed as the fraction by which the compound increases the desaturation index above 1. The Amax value refers to the percent […] of the tested compound compared to the reference compound.

[2] = system: SCD1 protein production in SZ95-SCD1-HiBit cells; test: Measurement of SCD1 expression in SZ95-SCD1-HiBit cells (HiBiT assay); assay type: cell-based; details: Homo sapiens; for EC50: SZ95-SCD1-HiBit cells, 48h incubation, top concentration 18 μM; for Emax: percent compared to the reference compound (Compound H), 48h, read-out: HiBit Amax
Experimental: SZ95-SCD1-HiBit cells were seeded in 384-well cell culture white plates at a density of 3000 cells/30 ul. Water is added to edge wells to avoid evaporation. Cells were incubated in a humidified incubator with 5% CO2 at 37° C. overnight. Tested compounds were diluted at a ratio of 1:3 using Agilent BRAVO Automated Liquid Handling Platform and added to cells at final concentrations starting from 18 μM. Compound H was used as a reference compound in each plate. Cells in the assay plate were incubated in a humidified incubator with 5% CO2 at 37° C. for 48h.
The assay plates were removed from the incubator and allowed to equilibrate to room temperature. Nano-Glo® HiBiT Detection Reagent (Promega; a mixture of Nano-Glo HiBiT Detection Buffer, Nano-Glo HiBiT Detection Substrate, and LgBiT protein) was added into assay plates, at a volume equal to cell culture medium in each well. Plates were placed on an orbital shaker at a speed of 300-600 rpm for 10 min at room temperature, and read on an EnVision Plate Reader using luminescence detection with a 1 second read time.
The assay measures the increase in SCD1 protein production in vitro. Amax refers to the percent […] of the tested compound compared to the reference compound.

[3] = In vivo measurement of lowered meibum melting temperature (DSC); set-up: species or system Sprague Dawley rats; details: for Change of Tm: compound versus vehicle, rat meibum, DSC (method gives °C); for Mean ± SEM of Compound (meibum melting temperature): naive Sprague Dawley rats, 1% compound, DSC peak temperature (method gives °C), in °C; for Meibum melting temperature, in words: rat eyes, concentration of 1%, in comparison to vehicle
Experimental: For specific compounds Compound B and Compound C, the lowering of rat meibum melting temperature was measured in naive Sprague Dawley rats. The test animals were administered either vehicle or Compound B or Compound C, the meibum collected upon administration of the compounds was analyzed by differential scanning calorimetry to measure the melting point. The lowering of meibum melting point in rats administered Compound B or Compound C were compared to vehicle.
Melting properties of meibum were obtained using differential scanning calorimetry thermograms, recorded on a TA Discovery Q5000 (ThermoAnalytical). Samples were sealed in standard 40 μl aluminum pans and subjected to a heat-cool-heat cycle with melting temperatures being recorded on the second heating ramp. The samples were first heated to 150° C. at 30K/min then cooled −30° C. at 30K/min. Next, the sample was heated to 75° C. with an underlying heating rate of 2K/min, a period of modulation of 60 seconds and a temperature amplitude of modulation of 1° C. Dry N2 gas, at a flow rate of 50 mL/min was used to purge the DSC equipment during the measurement. Onset of melting and peak temperatures were recorded with peak temperature quoted as the melting point.
Results from the assay are shown Table 3 and in FIGS. 1 and 2. Results were analyzed using an unpaired t test with Welch's correction.

Structure (SMILES)	EC50 [1]	Emax [1]	EC50 [2]	Emax [2]	Change of Tm [3]	Mean ± SEM of Compound (meibum melting temperature) [3]	Meibum melting temperature, in words [3]
O=C(O)Cn1ccc2c(OCCCN(Cc3cccc(C(F)(F)F)c3Cl)CC(c3ccccc3)c3ccccc3)cccc21 [Compound A, 2-(4-(3-((2-chloro-3-(trifluoromethyl)benzyl)(2,2-diphenylethyl)amino)propoxy)-1H-indol-1-yl)acetic acid]	0.0073 µM	104%	0.0049 µM	94%			
CC(C)(C)N1C(=O)C(Nc2ccc(N3CCCCC3)cc2)=C(c2ccccc2)S1(=O)=O [Compound B, 2-(tert-butyl)-5-phenyl-4-((4-(piperidin-1-yl)phenyl)amino)isothiazol-3(2H)-one 1,1-dioxide]	0.168 µM	92%	0.0018 µM	64%	−1.534 ± 0.3522	29.1 ± 0.2363	decrease in meibum melting temperature
C[C@H](CCOc1cccc(C(C)(C)C(=O)O)c1)N(Cc1cccc(C(F)(F)F)c1Cl)CC(c1ccccc1)c1ccccc1 [Compound C, (R)-2-(3-(3-((2-chloro-3-(trifluoromethyl)benzyl)(2,2-diphenylethyl)amino)butoxy)phenyl)-2-methylpropanoic acid]	0.0055 µM	90.7%	0.0009 µM	69.9%	−1.513 ± 0.6575	30.68 ± 0.6065	decrease in meibum melting temperature
CC(C)[C@@H]1CN(c2ccc(CO)c(S(C)(=O)=O)c2)CCN1c1ncc(CO)c(C(F)(F)F)n1 [Compound D, (R)-(2-(4-(4-(hydroxymethyl)-3-(methylsulfonyl)phenyl)-2-isopropylpiperazin-1-yl)-4-(trifluoromethyl)pyrimidin-5-yl)methanol]	0.0418 µM	65.6%	0.002 µM	66.2%			
CCCc1c(OCCCN(C)c2cnc(CC(=O)O)cn2)ccc2c(C(F)(F)F)noc12 [Compound E, 2-(5-(methyl(3-((7-propyl-3-(trifluoromethyl)benzo[d]isoxazol-6-yl)oxy)propyl)amino)pyrazin-2-yl)acetic acid]	0.069 µM	81.8%	0.0294 µM	77.9%			
O=S(=O)(c1ccccc1)N(CC(F)(F)F)c1ccc(C(O)(C(F)(F)F)C(F)(F)F)cc1 [Compound F, N-(4-(1,1,1,3,3,3-hexafluoro-2-hydroxypropan-2-yl)phenyl)-N-(2,2,2-trifluoroethyl)benzenesulfonamide]	0.19 µM	89.8%	0.0474 µM	76.1%			
O=C(O)Cc1cccc(OCCCN(Cc2cccc(C(F)(F)F)c2Cl)CC(c2ccccc2)c2ccccc2)c1 [Compound H, 2-(3-(3-((2-chloro-3-(trifluoromethyl)benzyl)(2,2-diphenylethyl)amino)propoxy)phenyl)acetic acid]	0.0881 µM	97.4%	0.113 µM	92%			
CC(C)(O)c1cn(-c2ccc(-c3cc(F)c(CO)c(S(C)(=O)=O)c3)cc2F)c(C(C)(C)c2c(Cl)cccc2Cl)n1 [Compound I, 2-(2-(2-(2,6-dichlorophenyl)propan-2-yl)-1-(3,3′-difluoro-4′-(hydroxymethyl)-5′-(methylsulfonyl)-[1,1′-biphenyl]-4-yl)-1H-imidazol-4-yl)propan-2-ol]	4.52 µM	60.2%	> 18 µM	43.3%			
CCN(Cc1ccccc1)c1ccc(C(O)(C(F)(F)F)C(F)(F)F)cc1Cl [Compound J, 2-(4-(benzyl(ethyl)amino)-3-chlorophenyl)-1,1,1,3,3,3-hexafluoropropan-2-ol]	1.47 µM	58%	0.323 µM	77.5%			
CN(C)C(=O)c1ccc(-c2cnc(N3CCN(C(=O)C(C)(C)c4ccccc4)CC3)c(C#N)c2)cc1Cl [Compound K, 2-chloro-4-(5-cyano-6-(4-(2-methyl-2-phenylpropanoyl)piperazin-1-yl)pyridin-3-yl)-N,N-dimethylbenzamide]	0.458 µM	151%	0.538 µM	66%			
Fc1ccc(-c2c3cccc(C(F)(F)F)c3nn2Cc2ccc(F)cc2Cl)cc1 [Compound L, 2-(2-chloro-4-fluorobenzyl)-3-(4-fluorophenyl)-7-(trifluoromethyl)-2H-indazole]	> 10 µM	33.3%	> 18 µM	48.4%			
CN(C)C(=O)c1ccc(N2CCC(C3CCN(S(=O)(=O)c4ccccc4Cl)CC3)CC2)cc1Cl [Compound M, 2-chloro-4-(1′-((2-chlorophenyl)sulfonyl)-[4,4′-bipiperidin]-1-yl)-N,N-dimethylbenzamide]	> 10 µM	29.2%	> 18 µM	39.1%			
CC(C)[C@@H]1c2nc3cc(CO)c(S(C)(=O)=O)cc3n2CCN1c1ncc(C(C)(C)O)c(C(F)(F)F)n1 [Compound N, (R)-2-(2-(8-(hydroxymethyl)-1-isopropyl-7-(methylsulfonyl)-3,4-dihydrobenzo[4,5]imidazo[1,2-a]pyrazin-2(1H)-yl)-4-(trifluoromethyl)pyrimidin-5-yl)propan-2-ol]	0.052 µM	165%	0.004 µM	72.4%			

Reference: US20220257596A1, “METHODS FOR TREATING MEIBOMIAN GLAND DYSFUNCTION WITH LIVER X RECEPTOR AGONISTS” (Novartis AG, priority 2019, published 2022)
